Reference: patent US20250137054A1, “COMPOSITION AND METHOD FOR EVALUATING RESPONSIVENESS OF EDARAVONE” (MITSUBISHI TANABE PHARMA CORPORATION, priority 2022, published 2025)

Tests used:
[1] = test system: differentiated 1464R cell line (no forced TDP-43 expression); assay: RNA-seq gene expression analysis in differentiated cell line without TDP-43; assay type: cell-based, rat; settings: Group 2 (Eda 50 μmol/L 48 h) vs Group 1 (control)
Experimental: Next, using a differentiation medium shown below, the 1464R cell line was cultured in an adherent state on a poly-L-lysine treated dish. Culture conditions for cell differentiation were 37° C., 5% CO2, and 4 days. Through this process, the 1464R cell line was differentiated into neuronal cells (neurons). Further, the 1464R cell line partly differentiated into glial cells. In the following description, the differentiated 1464R cell line is also collectively referred to as the “differentiated cell line.” […]
Next, using the NovaSeq6000 system (NovaSeq6000 S4 reagent kit, NovaSeq Xp4 lane kit, and NovaSeq control software (version 1.6.0); all manufactured by Illumina), sequences of the cDNA library were determined according to a product protocol. […]
An RNA expression level (TPM) of a transcription product i measured from the cDNA library of the experimental groups was calculated based on alignment to the rat genome and transcription product annotation from the Ensembl database, according to the following equation (A).
Differential expression analysis was performed using DESeq2 (a package for two-group comparison) in the statistical analysis software R (version 3.6.0) to calculate a log 2 ratio of RNA expression levels and a significance test. The log 2 ratio is a value expressed as “log 2 ([expression level of a first measurement target]/[expression level of a second measurement target]).” […]

[2] = test system: disease model cells, TDP-43 (+); assay: Evaluation of cell protection using chromogenic substrate (2), without EA; assay type: cell-based, rat; settings: Eda 50 or 100 μmol/L 96 h, no EA; vs Comparative Example 2 (FIG. 12)
Text: Using the differentiated cell line prepared using the method of Example 1 (indicated as “TDP-43 (−)” in FIG. 12), an Eda-unexposed group (Reference Example 2) and a 96-hour Eda-exposed group (final concentration 100 μmol/L) (Reference Example 3) were each prepared.
Further, using the disease model cells prepared using the method of Example 1 (indicated as “TDP-43 (+)” in FIG. 12), an Eda-unexposed group (Comparative Example 2) and 96-hour Eda-exposed groups (final concentration 50 or 100 μmol/L) (Examples 5-1 and 5-2) were each prepared.
All of these were performed without containing EA.
After that, similar to Example 3-1 and the like, a cell toxicity measurement kit was used to expose the cells in each group according to a product protocol, and an amount of chromogenic substrate produced was measured by absorbance at 450 nm.
The data shown in FIG. 12 are all expressed as mean±standard error of the mean (SEM, n=4 for each). In FIG. 12, the symbol “##” indicates a statistically significant difference of p<0.01 compared to Comparative Example 2. In FIG. 12, the symbol “**” indicates a statistically significant difference of p<0.05 compared to Comparative Example 2. In FIG. 12, the symbol “$” indicates a statistically significant difference of p<0.05 compared to Reference Example 2 (all determined by Student t-test).

CC1=NN(c2ccccc2)C(=O)C1 [edaravone, 5-methyl-2-phenyl-2,4-dihydro-3H-pyrazol-3-one]
number of downregulated genes (DEGs) [1]: 0/0 | number of upregulated genes (DEGs) [1]: 0/0 | number of viable cells (absorbance at 450 nm) [2]: higher number of viable cells
